# From patent US11274097B2, “2-(het)aryl-substituted condensed bicyclic heterocycle derivatives as pest control agents” (BAYER CROPSCIENCE AKTIENGESELLSCHAFT, priority 2014, dated 2022)
# Experiments:
# [1] = tested on: Boophilus microplus; assay: Boophilus microplus injection test (BOOPMI Inj); assay type: in vivo; conditions: application rate 20 μg/animal; injection into engorged adult female cattle ticks; after 7 days
# Procedure: Boophilus microplus—Injection Test (BOOPMI Inj)
# Solvent: dimethyl sulphoxide
# To produce an appropriate active ingredient formulation, 10 mg of active ingredient are mixed with 0.5 ml of solvent and the concentrate is diluted with solvent to the desired concentration.
# 1 μl of the active ingredient solution is injected into the abdomen of 5 engorged adult female cattle ticks (Boophilus microplus). The animals are transferred into dishes and kept in a climate-controlled room.
# Efficacy is assessed after 7 days by laying of fertile eggs. Eggs which are not visibly fertile are stored in a climate-controlled cabinet until the larvae hatch after about 42 days. An efficacy of 100% means that none of the ticks has laid any fertile eggs; 0% means that all the eggs are fertile.
# [2] = tested on: Musca domestica; assay: Musca domestica test (MUSCDO); assay type: in vivo; conditions: application rate 20 ppm; adult houseflies; after 2 days
# Procedure: Musca domestica Test (MUSCDO) Solvent: dimethyl sulphoxide To produce an appropriate active ingredient formulation, 10 mg of active ingredient are mixed with 0.5 ml of dimethyl sulphoxide, and the concentrate is diluted with water to the desired concentration. Vessels containing a sponge treated with sugar solution and the active ingredient formulation of the desired concentration are populated with 10 adult houseflies (Musca domestica). After 2 days, the kill in % is determined. 100% means that all of the flies have been killed; 0% means that none of the flies have been killed.
# [3] = tested on: Ctenocephalides felis; assay: Ctenocephalides felis in vitro contact test; assay type: in vivo; conditions: application rate 5 μg/cm^2; adult cat fleas; after 48 h
# Procedure: Ctenocephalides felis—In Vitro Contact Test
# For the coating of the test tubes, 9 mg of active ingredient are first dissolved in 1 ml of acetone p.a. and then diluted to the desired concentration with acetone p.a. 250 μl of the solution are distributed homogeneously on the inner walls and base of a 25 ml test tube by turning and rocking on an orbital shaker (rocking rotation at 30 rpm for 2 h). With 900 ppm active ingredient solution and internal surface 44.7 cm^2, given homogeneous distribution, an area-based dose of 5 μg/cm^2 is achieved.
# After the solvent has evaporated off, the tubes are populated with 5-10 adult cat fleas (Ctenocephalides felis), sealed with a perforated plastic lid and incubated in a horizontal position at room temperature and ambient humidity. After 48 h, efficacy is determined. To this end, the test tubes are stood upright and the fleas are knocked to the base of the tube. Fleas which remain motionless at the base or move in an uncoordinated manner are considered to be dead or moribund.
# 100% efficacy means that all the fleas were dead or moribund. 0% efficacy means that no fleas were harmed.
# [4] = tested on: Ctenocephalides felis; assay: Ctenocephalides felis oral test (CTECFE); assay type: in vivo; conditions: application rate 100 ppm; in citrated cattle blood; after 2 days
# Procedure: Ctenocephalides felis-Oral Test ([…]) Solvent: dimethyl sulphoxide For the purpose of producing an appropriate active ingredient formulation, 10 mg of active ingredient are mixed with 0.5 ml of dimethyl sulphoxide. Dilution with citrated cattle blood gives the desired concentration. About 20 unfed adult cat fleas (Ctenocephalides felis) are placed into a chamber which is closed at the top and bottom with gauze. A metal cylinder whose bottom end is closed with parafilm is placed onto the chamber. The cylinder contains the blood/active ingredient preparation, which can be imbibed by the fleas through the parafilm membrane. After 2 days, the kill in % is determined. 100% means that all of the fleas have been killed; 0% means that none of the fleas have been killed.
# [5] = tested on: Myzus persicae; assay: Myzus persicae translaminar test (MYZUPE t); assay type: in vivo; conditions: 14 dat
# Procedure: Myzus persicae—Translaminar Test (MYZUPE t)
# (§1) Solvent: 7 parts by weight of dimethylformamide
# Emulsifier: alkylaryl poly glycol ether
# (§2) To produce an appropriate active ingredient formulation, 1 part by weight of active ingredient is dissolved using the stated parts by weight of solvent and made up with water containing an emulsifier concentration of 1000 ppm until the desired concentration is attained. To produce further test concentrations, the preparation is diluted with emulsifier-containing water. In the event that addition of ammonium salts or/and penetrants (rapeseed oil methyl ester) is required, these are each pipetted in a concentration of 1000 ppm after the finished formulation solution has been diluted.
# One-leaved bell pepper plants (Capsicum annuum) heavily infested by the green peach aphid (Myzus persicae) are treated by spraying the top side of the leaf with the active ingredient formulation in the desired concentration.
# After the desired time, the kill in % is determined. 100% means that all the aphids have been killed and 0% means that none of the aphids have been killed.
# [6] = log P by HPLC on a reversed-phase column (C 18), EEC Directive 79/831 Annex V.A8; assay type: physicochemical; conditions: 55° C.
# Method in brief: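 Reversed-phase C18 HPLC at 55 °C, 10→95% acetonitrile linear gradient. log P (HCOOH) run at pH 2.7 with 0.1% formic acid; log P (neutral) at pH 7.8 with 0.001 M ammonium hydrogencarbonate. Calibrated by retention-time interpolation between unbranched C3–C16 alkan-2-ones of known log P.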
# [7] = tested on: Phaedon cochleariae; assay: Phaedon cochleariae spray test (PHAECO); assay type: in vivo; conditions: application rate 500 g/ha; larvae; after 7 days
# Method in brief: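 Chinese cabbage leaf discs sprayed with compound in acetone/dimethylformamide with alkylaryl polyglycol ether emulsifier in water, dried, then infested with mustard beetle larvae. Efficacy scored after 7 days as % larvae killed (100% = all dead, 0% = none).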
# [8] = tested on: Nilaparvata lugens; assay: Nilaparvata lugens test (NILALU); assay type: in vivo; conditions: 4 ppm
# Procedure: Nilaparvata lugens Test (NILALU)
# as §1
# Emulsifier: alkylaryl polyglycol ether
# as §2
# Rice plants (Oryza sativa, var. Balilla) are treated by spraying with the active ingredient formulation in the desired concentration and then populated with L3 larvae of the brown planthopper (Nilaparvata lugens).
# After the desired time, the feeding damage in % is determined. 100% means that no feeding damage is found; 0% means that the feeding damage to the treated plant corresponds to that of the untreated control.
smiles,measurement,setting,value
CCS(=O)(=O)c1cc(C(F)(F)F)cnc1-c1nc2cc(C(F)(F)F)ncc2n1C [Example I-21],efficacy (laying of fertile eggs),[1],80%
same,efficacy (kill),[2],95%
same,efficacy,[3],100%
same,efficacy (kill),[4],90%
same,% efficacy,[5]; 2.4 g/ha,90%
same,% efficacy,[5]; 12 g/ha,98%
same,LOGP_HCOOH,"[6]; acidic range, pH 2.7, 0.1% aqueous formic acid/acetonitrile",2.98
same,LOGP_NEUTRAL,"[6]; neutral range, pH 7.8, 0.001 molar aqueous ammonium hydrogencarbonate/acetonitrile",2.93
same,efficacy,[7],100%
same,% efficacy,[8]; 21 dat,90%
same,% efficacy,[8]; 28 dat,100%
